The record followed here is patent US20060141010A1, “Coated preparations that contain at least one hydroformate” (Basf Aktiengesellschaft, priority 2003, published 2006).

The assay relates to one-day-old chickens. The experiment in a line: Feeding experiment using coated trisodium hydrogenformate preparations in a standard wheat-soy diet. It counts as in vivo. The following applies: after 21 days, vs negative control (standard wheat-soy diet). Here is the method: A feeding experiment was carried out using one-day-old chickens. Trisodium hydrogenformate was coated with 0, 15 and 30% by weight hydrogenated soybean oil. Per dose, 2 repetitions were carried out, and 10 chickens were used in each feeding experiment.
A standard wheat-soy diet was used as negative control. The coated trisodium hydrogenformate preparations were added to the diet in exchange for cellulose (1% in the negative control).
Feeding results compared with the negative control [%] after 21 days.

Setting [1] is: 0.4 % by weight trisodium hydrogenformate in diet.
Where [2] appears, read: 0.8 % by weight trisodium hydrogenformate in diet.

As to `O=CO.O=C[O-].O=C[O-].O=C[O-].[Na+].[Na+].[Na+]` [trisodium hydrogenformate], under setting [1], the “FCR (feed conversion rate), feeding results compared with the negative control” value is given as “+2%” and the “Weight gain, feeding results compared with the negative control” value was “+2%”. Under setting [2], the “FCR (feed conversion rate), feeding results compared with the negative control” value is “+5%” and the “Weight gain, feeding results compared with the negative control” value is listed as “+2%”.
